Here are results for 2 molecules from PMC3493702 (Cornea, 2013).

One data set is described as follows: in vitro. As to conditions: rabbit, Ptot (apparent permeability coefficient) [corneal permeability].
The conditions of data set [1]: corneal permeability, literature value; cited from earlier work.

As for `CC(CO)(CO)[N+](=O)[O-]` [MNPD, 2-methyl-2-nitro-1,3-propanediol], the Papp (usually the rate of passage across a membrane or cell layer, normalised by area and donor concentration) at 120 min, 100 mM in the data set “in vitro” came out at 4.37 ×10⁻⁶ cm/s.
For the molecule `OC[C@@H](O)[C@@H](O)[C@H](O)[C@H](O)CO` [mannitol], the Ptot in data set [1] is 2.4 ×10⁻⁶ cm/s.
